What was measured:
L02 = test: Cytotoxicity against human L02 cells assessed as inhibition of cell proliferation measured after 72 hrs by MTT assay; type: cell-based; conditions: L02, 72 h
A-431 [1] = test: Antiproliferative activity against human A-431 cells assessed as inhibition of cell proliferation measured after 72 hrs by MTT assay; type: functional, cell-based; conditions: A-431, 72 h
MCF7 = test: Antiproliferative activity against human MCF7 cells assessed as inhibition of cell proliferation measured after 72 hrs by MTT assay; type: functional, cell-based; conditions: MCF7, 72 h
HeLa = test: Antiproliferative activity against human HeLa cells assessed as inhibition of cell proliferation measured after 72 hrs by MTT assay; type: functional, cell-based
A549 = test: Antiproliferative activity against human A549 cells assessed as inhibition of cell proliferation measured after 72 hrs by MTT assay; type: functional, cell-based; conditions: A549, 72 h
Homo sapiens [2] = species: Homo sapiens; test: Inhibition of PI3K (unknown origin) using FAM-labelled peptide as substrate at 1 uM incubated for 10 mins in presence of ATP measured by mobility shift assay
Homo sapiens [3] = species: Homo sapiens; test: Inhibition of EGFR T790M/L858R double mutant (unknown origin) using FAM-labelled peptide as substrate at 1 uM incubated for 10 mins in presence of ATP measured by mobility shift assay
NCI-H1975 [4] = test: Antiproliferative activity against human NCI-H1975 cells harboring EGFR T790M/L858R double mutant assessed as inhibition of cell viability at 1 uM measured after 72 hrs by MTT assay; type: functional
Homo sapiens [5] = species: Homo sapiens; test: Selectivity ratio of IC50 for wild type EGFR (unknown origin) to IC50 for EGFR T790M/L858R double mutant (unknown origin) measured by mobility shift assay
[6] = target: Hepatocyte growth factor receptor (Homo sapiens) (UniProt P08581); test: Inhibition of c-MET (unknown origin) using FAM-labelled peptide as substrate at 1 uM incubated for 10 mins in presence of ATP measured by mobility shift assay
Sequence of Hepatocyte growth factor receptor (Homo sapiens) (P08581 whole entry): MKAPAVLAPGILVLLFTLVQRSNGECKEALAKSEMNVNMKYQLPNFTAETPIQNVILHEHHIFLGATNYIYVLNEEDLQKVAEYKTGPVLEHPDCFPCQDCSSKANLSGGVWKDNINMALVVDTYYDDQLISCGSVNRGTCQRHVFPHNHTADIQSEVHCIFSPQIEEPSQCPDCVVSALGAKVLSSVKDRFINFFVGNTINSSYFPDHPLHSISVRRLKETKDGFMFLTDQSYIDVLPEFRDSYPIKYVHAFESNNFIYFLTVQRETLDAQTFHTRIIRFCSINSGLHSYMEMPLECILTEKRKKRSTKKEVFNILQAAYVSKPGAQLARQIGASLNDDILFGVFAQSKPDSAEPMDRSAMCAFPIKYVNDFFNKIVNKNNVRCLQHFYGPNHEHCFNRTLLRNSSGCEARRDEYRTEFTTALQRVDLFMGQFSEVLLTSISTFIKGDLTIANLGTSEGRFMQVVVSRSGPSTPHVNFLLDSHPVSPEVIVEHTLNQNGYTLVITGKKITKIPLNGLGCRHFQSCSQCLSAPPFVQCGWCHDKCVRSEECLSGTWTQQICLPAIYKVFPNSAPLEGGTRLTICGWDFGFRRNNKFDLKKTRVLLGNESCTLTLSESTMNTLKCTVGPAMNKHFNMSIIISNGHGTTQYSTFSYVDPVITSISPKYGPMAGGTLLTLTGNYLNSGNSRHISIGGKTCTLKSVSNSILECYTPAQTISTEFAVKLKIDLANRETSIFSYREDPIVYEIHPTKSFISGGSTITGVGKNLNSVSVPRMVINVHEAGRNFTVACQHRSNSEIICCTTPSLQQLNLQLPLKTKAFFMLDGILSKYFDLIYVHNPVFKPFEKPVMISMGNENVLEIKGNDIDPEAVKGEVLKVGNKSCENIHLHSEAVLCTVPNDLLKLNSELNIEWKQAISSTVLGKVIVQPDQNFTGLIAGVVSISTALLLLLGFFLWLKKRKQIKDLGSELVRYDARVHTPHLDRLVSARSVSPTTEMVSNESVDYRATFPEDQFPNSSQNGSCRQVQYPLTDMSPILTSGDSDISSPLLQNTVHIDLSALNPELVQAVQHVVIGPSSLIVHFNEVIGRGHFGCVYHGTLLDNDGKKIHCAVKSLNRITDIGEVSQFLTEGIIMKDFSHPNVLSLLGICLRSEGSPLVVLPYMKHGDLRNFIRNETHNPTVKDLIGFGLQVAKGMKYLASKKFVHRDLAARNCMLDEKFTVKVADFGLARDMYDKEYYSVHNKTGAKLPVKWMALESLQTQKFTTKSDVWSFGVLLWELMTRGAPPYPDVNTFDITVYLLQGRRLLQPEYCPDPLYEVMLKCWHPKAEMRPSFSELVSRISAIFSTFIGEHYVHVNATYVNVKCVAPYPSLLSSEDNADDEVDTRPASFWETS

NCI-H1975 [7] = test: Antiproliferative activity against human NCI-H1975 cells harboring EGFR T790M/L858R double mutant assessed as inhibition of cell viability at 10 uM measured after 72 hrs by MTT assay; type: functional
Homo sapiens [8] = species: Homo sapiens; test: Selectivity ratio of IC50 for wild type EGFR (unknown origin) to IC50 for EGFR T790M mutant (unknown origin) measured by mobility shift assay
[9] = target: Serine/threonine-protein kinase mTOR (Homo sapiens) (UniProt P42345); test: Inhibition of mTOR (unknown origin) using FAM-labelled peptide as substrate at 1 uM incubated for 10 mins in presence of ATP measured by mobility shift assay
[10] = target: Vascular endothelial growth factor receptor 2 (Homo sapiens) (UniProt P35968); test: Inhibition of KDR (unknown origin) using FAM-labelled peptide as substrate at 1 uM incubated for 10 mins in presence of ATP measured by mobility shift assay
Sequence of Vascular endothelial growth factor receptor 2 (Homo sapiens) (P35968 whole entry): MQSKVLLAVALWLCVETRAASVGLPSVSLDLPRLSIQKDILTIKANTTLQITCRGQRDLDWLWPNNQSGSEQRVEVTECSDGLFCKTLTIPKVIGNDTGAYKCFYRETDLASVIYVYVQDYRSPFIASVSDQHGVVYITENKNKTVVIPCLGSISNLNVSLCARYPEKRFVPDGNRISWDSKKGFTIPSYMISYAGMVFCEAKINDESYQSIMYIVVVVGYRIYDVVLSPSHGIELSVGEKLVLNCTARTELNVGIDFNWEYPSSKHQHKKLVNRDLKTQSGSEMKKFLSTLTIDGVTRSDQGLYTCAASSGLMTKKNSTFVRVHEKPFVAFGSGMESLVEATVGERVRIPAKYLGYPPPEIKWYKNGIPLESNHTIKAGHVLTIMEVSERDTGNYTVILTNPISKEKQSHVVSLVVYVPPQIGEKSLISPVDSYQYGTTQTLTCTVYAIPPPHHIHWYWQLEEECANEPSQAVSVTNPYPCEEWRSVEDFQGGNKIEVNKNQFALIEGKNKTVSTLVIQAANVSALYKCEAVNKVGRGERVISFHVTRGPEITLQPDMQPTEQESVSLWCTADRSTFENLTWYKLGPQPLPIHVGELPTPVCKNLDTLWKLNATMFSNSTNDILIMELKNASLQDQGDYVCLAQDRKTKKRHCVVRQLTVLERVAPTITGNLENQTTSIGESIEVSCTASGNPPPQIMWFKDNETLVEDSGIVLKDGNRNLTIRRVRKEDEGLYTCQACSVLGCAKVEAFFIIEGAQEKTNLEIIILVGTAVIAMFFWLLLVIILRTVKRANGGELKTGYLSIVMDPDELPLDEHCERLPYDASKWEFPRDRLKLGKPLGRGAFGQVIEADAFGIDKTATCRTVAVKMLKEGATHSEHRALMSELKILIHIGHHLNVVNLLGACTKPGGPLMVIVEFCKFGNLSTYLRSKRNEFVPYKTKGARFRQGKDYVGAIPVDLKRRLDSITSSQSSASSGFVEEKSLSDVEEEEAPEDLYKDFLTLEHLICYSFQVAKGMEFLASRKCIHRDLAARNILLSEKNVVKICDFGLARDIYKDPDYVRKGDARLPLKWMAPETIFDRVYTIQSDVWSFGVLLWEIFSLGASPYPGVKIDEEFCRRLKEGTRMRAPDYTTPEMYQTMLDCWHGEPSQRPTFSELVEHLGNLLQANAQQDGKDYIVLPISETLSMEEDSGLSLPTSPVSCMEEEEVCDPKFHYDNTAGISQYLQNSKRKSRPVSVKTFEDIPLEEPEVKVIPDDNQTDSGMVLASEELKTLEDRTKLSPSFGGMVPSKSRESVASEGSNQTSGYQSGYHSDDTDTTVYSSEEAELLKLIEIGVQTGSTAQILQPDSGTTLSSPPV

Homo sapiens [11] = species: Homo sapiens; test: Inhibition of EGFR T790M mutant (unknown origin) using FAM-labelled peptide as substrate at 1 uM incubated for 10 mins in presence of ATP measured by mobility shift assay
[12] = target: T1, Epidermal growth factor receptor (Homo sapiens, UniProt P00533); test: Inhibition of wild type EGFR (unknown origin) using FAM-labelled peptide as substrate at 1 uM incubated for 10 mins in presence of ATP measured by mobility shift assay
T1 sequence (P00533 whole entry): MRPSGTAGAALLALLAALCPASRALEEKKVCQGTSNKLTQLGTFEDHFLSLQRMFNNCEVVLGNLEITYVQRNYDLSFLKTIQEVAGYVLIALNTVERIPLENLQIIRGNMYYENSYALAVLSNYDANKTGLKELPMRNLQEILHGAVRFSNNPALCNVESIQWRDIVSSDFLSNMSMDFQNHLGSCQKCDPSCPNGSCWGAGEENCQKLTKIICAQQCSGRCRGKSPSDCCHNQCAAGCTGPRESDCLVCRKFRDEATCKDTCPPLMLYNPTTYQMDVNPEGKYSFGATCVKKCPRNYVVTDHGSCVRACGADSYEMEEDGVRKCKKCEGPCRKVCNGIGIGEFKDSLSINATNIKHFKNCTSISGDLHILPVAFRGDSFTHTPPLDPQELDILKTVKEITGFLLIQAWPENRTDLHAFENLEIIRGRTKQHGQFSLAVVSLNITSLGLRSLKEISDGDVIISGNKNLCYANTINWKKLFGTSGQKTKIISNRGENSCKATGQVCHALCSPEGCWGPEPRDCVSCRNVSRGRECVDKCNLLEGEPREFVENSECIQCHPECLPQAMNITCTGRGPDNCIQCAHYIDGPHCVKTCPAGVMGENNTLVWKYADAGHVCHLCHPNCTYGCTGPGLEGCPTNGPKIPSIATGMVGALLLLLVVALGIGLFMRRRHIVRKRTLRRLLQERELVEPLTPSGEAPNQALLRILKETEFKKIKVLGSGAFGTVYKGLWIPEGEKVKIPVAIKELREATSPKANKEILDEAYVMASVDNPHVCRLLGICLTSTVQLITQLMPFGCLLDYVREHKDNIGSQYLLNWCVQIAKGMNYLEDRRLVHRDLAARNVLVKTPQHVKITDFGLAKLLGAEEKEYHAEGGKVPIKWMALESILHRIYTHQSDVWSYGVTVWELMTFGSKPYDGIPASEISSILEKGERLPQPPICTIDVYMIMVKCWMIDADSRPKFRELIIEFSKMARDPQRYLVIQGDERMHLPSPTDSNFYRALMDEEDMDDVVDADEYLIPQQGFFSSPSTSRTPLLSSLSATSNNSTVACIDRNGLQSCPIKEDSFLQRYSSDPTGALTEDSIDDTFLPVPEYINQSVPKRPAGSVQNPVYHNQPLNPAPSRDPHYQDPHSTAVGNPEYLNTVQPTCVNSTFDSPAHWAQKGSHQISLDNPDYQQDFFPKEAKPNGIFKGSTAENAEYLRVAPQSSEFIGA

NCI-H1975 [13] = test: Antiproliferative activity against human NCI-H1975 cells harboring EGFR T790M/L858R double mutant assessed as inhibition of cell viability measured after 72 hrs by MTT assay; type: functional, cell-based; conditions: NCI-H1975, 72 h
[14] = Inhibition of EGFR T790M mutant (unknown origin) using FAM-labelled peptide as substrate incubated for 10 mins in presence of ATP measured by mobility shift assay; design: species or system Homo sapiens
[15] = target: T1, Epidermal growth factor receptor; test: Inhibition of wild type EGFR (unknown origin) using FAM-labelled peptide as substrate incubated for 10 mins in presence of ATP measured by mobility shift assay
[16] = Inhibition of EGFR T790M/L858R double mutant (unknown origin) using FAM-labelled peptide as substrate incubated for 10 mins in presence of ATP measured by mobility shift assay; design: species or system Homo sapiens
A-431 [17] = test: Induction of apoptosis in human A-431 cells assessed as late apoptotic cells at 5 uM measured after 48 hrs by Annexin V-FITC staining based flow cytometry (reference value: 2.02%); type: functional
A-431 [18] = test: Induction of apoptosis in human A-431 cells assessed as viable cells at 5 uM measured after 48 hrs by Annexin V-FITC staining based flow cytometry (reference value: 95.67%); type: functional; conditions: read-out: Activity
A-431 [19] = test: Induction of apoptosis in human A-431 cells assessed as necrotic cells at 5 uM measured after 48 hrs by Annexin V-FITC staining based flow cytometry (reference value: 0.21%); type: functional
A-431 [20] = test: Induction of apoptosis in human A-431 cells assessed as early apoptotic cells at 5 uM measured after 48 hrs by Annexin V-FITC staining based flow cytometry (reference value: 2.1%); type: functional

IC50 (A-431 [1]) [µM] | IC50 (MCF7) [µM] | IC50 (HeLa) [µM] | IC50 (A549) [µM] | Compound | IC50 (L02) [µM] | other results
11.8 | > 50 | 45.1 | 13.7 | C/C=C/C(=O)Nc1cccc(Oc2nc(Nc3ccc(OC)cc3)nc3ccsc23)c1 | > 50 | –
25.2 | > 50 | 45.1 | 37.9 | COc1ccc(Nc2nc(Oc3cccc(NC(=O)/C=C/C(C)C)c3)c3sccc3n2)cc1 | – | –
37.2 | > 50 | > 50 | 31.9 | C/C=C/C(=O)Nc1cccc(Oc2nc(Nc3ccc(OC)nc3)nc3ccsc23)c1 | > 50 | –
13.1 | 14.6 | 20.1 | 10.5 | C/C=C/C(=O)Nc1cccc(Oc2nc(Nc3cccc(OC)c3)nc3ccsc23)c1 | 46 | –
23.4 | 43.9 | 27 | 37.1 | COc1cccc(Nc2nc(Oc3cccc(NC(=O)/C=C/C(C)C)c3)c3sccc3n2)c1 | – | –
4.79 | 19 | 16.4 | 4.34 | C=CC(=O)Nc1cccc(Oc2nc(Nc3cccc(OC)c3)nc3ccsc23)c1 | 30.3 | inhibition (Homo sapiens [2]): 31.6%; inhibition (Homo sapiens [3]): 104%; inhibition at 1 µM (NCI-H1975 [4]): 50.6%; Selectivity ratio (Homo sapiens [5]): > 65; inhibition [6]: 0.5%; inhibition at 10 µM (NCI-H1975 [7]): 86.8%; Selectivity ratio (Homo sapiens [8]): > 13; inhibition [9]: 9.7%; inhibition [10]: -0.2%; inhibition (Homo sapiens [11]): 94.8%; inhibition [12]: 24%; IC50 (NCI-H1975 [13]): 0.418 µM; IC50 [14]: 0.0766 µM; IC50 [15]: > 1 µM; IC50 [16]: 0.0153 µM
26.2 | > 50 | 49.9 | 25.8 | CC/C=C/C(=O)Nc1cccc(Oc2nc(Nc3ccc(OC)nc3)nc3ccsc23)c1 | > 50 | –
17.6 | 46.1 | 28.8 | 18.1 | COc1ccc(Nc2nc(Oc3cccc(NC(=O)C=C(C)C)c3)c3sccc3n2)cc1 | 48.9 | –
15.1 | > 50 | 36.1 | 16.1 | CC/C=C/C(=O)Nc1cccc(Oc2nc(Nc3ccc(OC)cc3)nc3ccsc23)c1 | > 50 | –
29.2 | 43.4 | 29.4 | 19.6 | CC/C=C/C(=O)Nc1cccc(Oc2nc(Nc3cccc(OC)c3)nc3ccsc23)c1 | > 50 | –
9.3 | 16 | 26.1 | 8.61 | C=CC(=O)Nc1cccc(Oc2nc(Nc3ccc(OC)cc3)nc3ccsc23)c1 | > 50 | inhibition at 1 µM (NCI-H1975 [4]): 59.1%; inhibition at 10 µM (NCI-H1975 [7]): 83.8%; IC50 (NCI-H1975 [13]): 0.207 µM
20.1 | 33.1 | 23.6 | 11.3 | C/C=C/C(=O)Nc1cccc(Oc2nc(Nc3cccc(C#N)c3)nc3ccsc23)c1 | 47.9 | –
20.4 | 49.1 | 42.1 | 16.7 | CCC/C=C/C(=O)Nc1cccc(Oc2nc(Nc3cccc(C#N)c3)nc3ccsc23)c1 | > 50 | –
36.2 | > 50 | 69.4 | 14.9 | CC/C=C/C(=O)Nc1cccc(Oc2nc(Nc3cccc(C#N)c3)nc3ccsc23)c1 | > 50 | –
4.22 | 35 | 31.4 | 5.21 | CCC/C=C/C(=O)Nc1cccc(Oc2nc(Nc3ccc(OC)cc3)nc3ccsc23)c1 | > 50 | inhibition at 1 µM (NCI-H1975 [4]): 3.25%; inhibition at 10 µM (NCI-H1975 [7]): 94.3%; inhibition (Homo sapiens [11]): 21.7%; inhibition [12]: 7.4%; IC50 (NCI-H1975 [13]): 2.14 µM; IC50 [14]: > 1 µM; IC50 [15]: > 1 µM
25.8 | 35.8 | 26.1 | 27.7 | COc1cccc(Nc2nc(Oc3cccc(NC(=O)C=C(C)C)c3)c3sccc3n2)c1 | – | –
8.09 | 5.02 | 7.73 | 5.56 | CCC/C=C/C(=O)Nc1cccc(Oc2nc(Nc3cccc(OC)c3)nc3ccsc23)c1 | > 50 | inhibition at 1 µM (NCI-H1975 [4]): -0.18%; inhibition at 10 µM (NCI-H1975 [7]): 14.6%; inhibition (Homo sapiens [11]): 24.5%; inhibition [12]: 4%; IC50 [14]: > 1 µM; IC50 [15]: > 1 µM
24.1 | > 50 | 36.5 | 19 | CC(C)/C=C/C(=O)Nc1cccc(Oc2nc(Nc3cccc(C#N)c3)nc3ccsc23)c1 | > 50 | –

Continued, molecule first:

Compound | IC50 (A-431 [1]) [µM] | IC50 (MCF7) [µM] | IC50 (HeLa) [µM] | IC50 (A549) [µM] | IC50 (L02) [µM] | other results
C=CC(=O)Nc1cccc(Oc2nc(Nc3ccn(C)n3)nc3ccsc23)c1 | 13.9 | 37.6 | 17.3 | 26.5 | – | –
C/C=C/C(=O)Nc1cccc(Oc2nc(Nc3ccn(C)n3)nc3ccsc23)c1 | 33.3 | > 50 | 43.5 | 29.5 | – | –
CC(C)=CC(=O)Nc1cccc(Oc2nc(Nc3cccc(C#N)c3)nc3ccsc23)c1 | 28.3 | 41.1 | 19.8 | 16.9 | > 50 | –
C=C(F)C(=O)Nc1cccc(Oc2nc(Nc3ccn(C)n3)nc3ccsc23)c1 | > 50 | > 50 | > 50 | > 50 | – | –
C=CC(=O)Nc1cccc(Oc2nc(Nc3ccc(N4CCN(C)CC4)cc3)nc3ccsc23)c1 [OLMUTINIB] | 5.29 | 6.9 | 9.27 | 4.29 | 25.5 | Activity (A-431 [17]): 14.78%; inhibition at 1 µM (NCI-H1975 [4]): 6.08%; viability at 5 µM (A-431 [18]): 78.7%; inhibition at 10 µM (NCI-H1975 [7]): 74.6%; inhibition (Homo sapiens [11]): 98.1%; Activity (A-431 [19]): 1.37%; IC50 (NCI-H1975 [13]): 0.52 µM; IC50 [14]: 0.048 µM; Activity (A-431 [20]): 5.17%; IC50 [16]: 0.0127 µM
C=C(C)C(=O)Nc1cccc(Oc2nc(Nc3ccn(C)n3)nc3ccsc23)c1 | > 50 | > 50 | > 50 | > 50 | – | –
C=CC(=O)Nc1cccc(Oc2nc(Nc3ccc(OC)nc3)nc3ccsc23)c1 | 27.8 | > 50 | 47.1 | 20.4 | > 50 | –
CC(C)=CC(=O)Nc1cccc(Oc2nc(Nc3ccn(C)n3)nc3ccsc23)c1 | 38.9 | 43.9 | 39.6 | 31.9 | – | –
CC(C)/C=C/C(=O)Nc1cccc(Oc2nc(Nc3ccn(C)n3)nc3ccsc23)c1 | 46.1 | > 50 | 48.8 | 29.9 | – | –
CC/C=C/C(=O)Nc1cccc(Oc2nc(Nc3ccn(C)n3)nc3ccsc23)c1 | 36.2 | > 50 | 49.4 | 25.6 | – | –
CCC/C=C/C(=O)Nc1cccc(Oc2nc(Nc3ccc(OC)nc3)nc3ccsc23)c1 | 30.3 | > 50 | > 50 | 21.5 | 41.6 | –
COc1ccc(Nc2nc(Oc3cccc(NC(=O)/C=C/C(C)C)c3)c3sccc3n2)cn1 | > 50 | > 50 | > 50 | > 50 | – | –
COc1ccc(Nc2nc(Oc3cccc(NC(=O)C=C(C)C)c3)c3sccc3n2)cn1 | > 50 | > 100 | > 100 | 40.1 | 36.9 | –
C=CC(=O)Nc1cc(Nc2nccc(-c3cn(C)c4ccccc34)n2)c(OC)cc1N(C)CCN(C)C [OSIMERTINIB] | […] | 3.67 | 1.83 | 0.67 | > 50 | –
CCC/C=C/C(=O)Nc1cccc(Oc2nc(Nc3ccn(C)n3)nc3ccsc23)c1 | 23.4 | 39.1 | 32.2 | 26.3 | – | –
